Measurements: ChEMBL document CHEMBL1201862, “PubChem BioAssay data set” (2004)
Each block holds one compound with its values, some of them ahead of it. Active and inactive are the calls of the source.

Experiments:
[1] = molecular target: T1, Apoptotic protease-activating factor 1 (Homo sapiens, UniProt O14727); format: functional
T1 sequence (O14727 whole entry): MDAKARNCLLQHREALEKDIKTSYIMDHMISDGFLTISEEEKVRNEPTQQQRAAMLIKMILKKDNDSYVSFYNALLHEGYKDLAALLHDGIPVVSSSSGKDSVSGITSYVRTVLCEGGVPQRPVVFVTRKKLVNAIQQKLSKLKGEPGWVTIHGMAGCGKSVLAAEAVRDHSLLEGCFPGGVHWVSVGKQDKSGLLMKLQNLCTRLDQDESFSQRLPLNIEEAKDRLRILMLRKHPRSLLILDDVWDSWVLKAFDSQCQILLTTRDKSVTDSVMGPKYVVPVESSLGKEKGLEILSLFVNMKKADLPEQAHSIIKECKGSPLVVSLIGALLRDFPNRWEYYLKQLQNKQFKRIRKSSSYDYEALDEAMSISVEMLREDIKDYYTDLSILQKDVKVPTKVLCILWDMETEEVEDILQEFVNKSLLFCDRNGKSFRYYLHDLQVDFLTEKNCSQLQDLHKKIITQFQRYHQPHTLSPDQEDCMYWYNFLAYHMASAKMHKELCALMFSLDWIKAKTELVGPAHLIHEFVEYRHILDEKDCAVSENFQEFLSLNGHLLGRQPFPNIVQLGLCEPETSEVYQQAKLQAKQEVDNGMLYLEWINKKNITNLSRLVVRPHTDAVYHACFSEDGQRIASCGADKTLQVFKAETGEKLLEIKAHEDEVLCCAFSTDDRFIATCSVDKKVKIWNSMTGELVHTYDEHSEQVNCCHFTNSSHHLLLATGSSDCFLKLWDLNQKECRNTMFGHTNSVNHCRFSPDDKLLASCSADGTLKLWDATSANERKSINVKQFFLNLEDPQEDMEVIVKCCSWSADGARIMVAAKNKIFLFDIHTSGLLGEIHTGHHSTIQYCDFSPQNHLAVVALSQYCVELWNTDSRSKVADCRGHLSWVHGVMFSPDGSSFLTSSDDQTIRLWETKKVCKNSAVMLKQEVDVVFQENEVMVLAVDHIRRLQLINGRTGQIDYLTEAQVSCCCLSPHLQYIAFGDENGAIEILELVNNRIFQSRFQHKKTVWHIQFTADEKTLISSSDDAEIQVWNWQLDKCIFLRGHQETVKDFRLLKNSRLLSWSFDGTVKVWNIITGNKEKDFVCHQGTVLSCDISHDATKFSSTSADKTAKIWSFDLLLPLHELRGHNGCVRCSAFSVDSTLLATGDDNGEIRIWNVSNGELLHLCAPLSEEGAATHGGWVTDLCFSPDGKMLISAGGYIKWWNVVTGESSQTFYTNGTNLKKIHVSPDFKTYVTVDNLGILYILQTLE

Genome polyprotein = Genome polyprotein (dengue virus type 2, UniProt P29990); experiment: flavivirus cap methylation enzyme inhibition – biochemical, confirmation dose response, primary screen (AID 588689); format: functional
Sequence of Genome polyprotein (P29990 2492-3391 limits assumed): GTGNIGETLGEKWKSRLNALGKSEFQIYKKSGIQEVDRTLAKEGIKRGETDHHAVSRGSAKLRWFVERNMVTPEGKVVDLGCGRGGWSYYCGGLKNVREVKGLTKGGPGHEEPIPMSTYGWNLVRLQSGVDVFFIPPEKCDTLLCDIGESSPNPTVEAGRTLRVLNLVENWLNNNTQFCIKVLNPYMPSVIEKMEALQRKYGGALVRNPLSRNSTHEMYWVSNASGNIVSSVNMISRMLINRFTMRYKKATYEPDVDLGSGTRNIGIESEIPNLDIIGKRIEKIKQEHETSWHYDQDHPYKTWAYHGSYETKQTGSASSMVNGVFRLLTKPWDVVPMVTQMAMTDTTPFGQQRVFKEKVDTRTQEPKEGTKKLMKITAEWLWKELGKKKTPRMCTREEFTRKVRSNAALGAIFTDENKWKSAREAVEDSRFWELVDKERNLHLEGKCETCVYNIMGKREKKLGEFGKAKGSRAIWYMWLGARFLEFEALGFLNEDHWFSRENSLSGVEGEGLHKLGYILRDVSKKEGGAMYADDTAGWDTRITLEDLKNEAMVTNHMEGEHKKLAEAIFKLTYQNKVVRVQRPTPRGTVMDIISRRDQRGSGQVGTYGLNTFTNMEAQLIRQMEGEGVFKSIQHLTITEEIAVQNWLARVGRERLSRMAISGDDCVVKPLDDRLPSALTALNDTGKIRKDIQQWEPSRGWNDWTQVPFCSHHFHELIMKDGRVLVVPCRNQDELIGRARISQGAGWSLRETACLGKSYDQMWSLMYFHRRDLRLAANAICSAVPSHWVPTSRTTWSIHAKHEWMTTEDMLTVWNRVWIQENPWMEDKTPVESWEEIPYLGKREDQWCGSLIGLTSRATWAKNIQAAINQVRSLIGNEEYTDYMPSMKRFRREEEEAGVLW

[2] = molecular target: Tyrosyl-DNA phosphodiesterase 2 (Homo sapiens, UniProt O95551); experiment: potency against TDP2 phosphodiesterase activity – biochemical, epi absorbance, IC50, dose response (AID 743297)
Sequence of Tyrosyl-DNA phosphodiesterase 2 (O95551 whole entry): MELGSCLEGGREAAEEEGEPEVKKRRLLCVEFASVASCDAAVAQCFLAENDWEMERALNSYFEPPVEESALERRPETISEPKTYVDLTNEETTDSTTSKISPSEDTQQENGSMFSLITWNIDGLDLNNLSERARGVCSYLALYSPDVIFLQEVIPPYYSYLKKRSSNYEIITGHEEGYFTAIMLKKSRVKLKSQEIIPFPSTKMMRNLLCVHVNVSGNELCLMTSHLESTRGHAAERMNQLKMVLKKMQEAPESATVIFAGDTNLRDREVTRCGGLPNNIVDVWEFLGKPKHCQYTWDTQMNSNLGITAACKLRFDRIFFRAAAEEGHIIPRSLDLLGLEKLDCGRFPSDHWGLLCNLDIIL

[3] = molecular target: Heat shock protein HSP 90-alpha (Homo sapiens, UniProt P07900); format: functional, organism-based
[4] = molecular target: T2, Heat shock factor protein 1 (Mus musculus, UniProt P38532); experiment: enhancement of HSF1-driven luciferase signal – cell-based, NIH3T3, luminescence, dose retest, confirmation (AID 435004); format: functional;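 note: stress induced by proteasome inhibitor MG132 added 30 min after compound; luciferase reporter driven by HSF1 response element in NIH3T3 cells; actives raise luminescence as potentiators of the MG132 stress response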
T2 sequence (P38532 whole entry): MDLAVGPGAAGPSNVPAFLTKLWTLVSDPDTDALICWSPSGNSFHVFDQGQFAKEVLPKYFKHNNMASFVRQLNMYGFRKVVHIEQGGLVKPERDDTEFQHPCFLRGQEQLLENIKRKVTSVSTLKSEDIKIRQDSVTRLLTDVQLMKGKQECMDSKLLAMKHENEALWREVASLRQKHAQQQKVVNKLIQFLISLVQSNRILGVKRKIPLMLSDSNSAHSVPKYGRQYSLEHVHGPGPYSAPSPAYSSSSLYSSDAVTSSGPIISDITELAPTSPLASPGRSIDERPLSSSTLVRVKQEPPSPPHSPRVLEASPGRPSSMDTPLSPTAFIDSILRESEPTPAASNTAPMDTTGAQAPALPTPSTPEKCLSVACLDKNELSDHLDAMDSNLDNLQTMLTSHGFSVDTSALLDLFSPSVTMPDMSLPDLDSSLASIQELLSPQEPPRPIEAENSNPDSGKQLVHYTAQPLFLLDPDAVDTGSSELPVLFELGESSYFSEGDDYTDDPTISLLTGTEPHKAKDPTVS

[5] = molecular target: T3, Short transient receptor potential channel 4 (Mus musculus, UniProt Q9QUQ5); experiment: calcium entry via TRPC4 opening agents – cell-based, HEK293 TRPC4/mu-opioid, Fluo-4 calcium, dose response (AID 434937); format: functional
T3 sequence (Q9QUQ5 whole entry): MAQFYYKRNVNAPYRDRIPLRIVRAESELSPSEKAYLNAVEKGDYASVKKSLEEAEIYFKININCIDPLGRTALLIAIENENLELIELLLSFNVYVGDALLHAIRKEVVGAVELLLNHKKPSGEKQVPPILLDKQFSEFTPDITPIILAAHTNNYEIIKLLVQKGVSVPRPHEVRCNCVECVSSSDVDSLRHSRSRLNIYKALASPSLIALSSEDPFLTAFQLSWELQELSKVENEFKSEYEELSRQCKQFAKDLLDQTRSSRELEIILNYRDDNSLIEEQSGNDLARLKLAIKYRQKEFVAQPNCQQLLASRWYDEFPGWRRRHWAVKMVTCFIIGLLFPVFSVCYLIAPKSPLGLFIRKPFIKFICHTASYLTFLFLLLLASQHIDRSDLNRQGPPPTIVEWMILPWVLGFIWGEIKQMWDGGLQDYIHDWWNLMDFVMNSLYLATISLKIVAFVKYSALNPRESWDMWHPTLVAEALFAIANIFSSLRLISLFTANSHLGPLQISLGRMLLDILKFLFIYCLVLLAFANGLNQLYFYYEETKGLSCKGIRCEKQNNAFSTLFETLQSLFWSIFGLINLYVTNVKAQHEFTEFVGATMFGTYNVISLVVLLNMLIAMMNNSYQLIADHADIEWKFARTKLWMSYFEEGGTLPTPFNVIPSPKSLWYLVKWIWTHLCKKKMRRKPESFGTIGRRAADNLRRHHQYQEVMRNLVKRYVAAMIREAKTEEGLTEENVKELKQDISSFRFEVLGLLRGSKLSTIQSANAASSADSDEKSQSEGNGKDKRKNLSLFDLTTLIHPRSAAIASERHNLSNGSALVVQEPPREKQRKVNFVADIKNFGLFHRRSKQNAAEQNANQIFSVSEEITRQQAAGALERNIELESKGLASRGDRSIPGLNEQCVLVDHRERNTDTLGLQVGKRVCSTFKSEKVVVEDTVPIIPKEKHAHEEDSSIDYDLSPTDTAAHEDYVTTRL

[6] = EF1alpha-driven Renilla reporter with control 3'UTR suppression – Clone20-Shn3RL cells, dual-Glo, cherry-pick, set 2, counter-screen for Shn3 3'UTR targeting project, dose response (AID 720724); format: functional, cell-based; settings: Dual-Go Shn3RL
[7] = reduction of Shn3 3'UTR-driven luciferase in osteoblasts – cell-based, Clone20 osteoblasts, firefly luciferase, cherry-picked, dose response (AID 624132); format: functional;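 note: firefly luciferase luminescence from reporter carrying the Shn3 3'UTR in osteoblasts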
[8] = HGIII-sPLA2 enzyme inhibition potency – biochemical, QFRET, IC50, dose response (AID 743457);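 note: green fluorescence rise as the enzyme cleaves BODIPY PC-A2 in liposomes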
Vero = experiment: viability of Vero cells under compound – cytotoxicity control for flavivirus capping enzyme inhibitors (AID 588742); format: functional; settings: Chlorocebus sabaeus
Paired box protein Pax-8 = Paired box protein Pax-8 (Homo sapiens, UniProt Q06710); experiment: PAX8 transcriptional activity inhibition in RMG-I – RMG-I cells, luciferase, cherry-pick, dose response (AID 687027); format: functional, cell-based;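 note: luciferase reporter driven by Pax8 target thyroperoxidase promoter measured by SteadyGlo luminescence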
Sequence of Paired box protein Pax-8 (Q06710 whole entry): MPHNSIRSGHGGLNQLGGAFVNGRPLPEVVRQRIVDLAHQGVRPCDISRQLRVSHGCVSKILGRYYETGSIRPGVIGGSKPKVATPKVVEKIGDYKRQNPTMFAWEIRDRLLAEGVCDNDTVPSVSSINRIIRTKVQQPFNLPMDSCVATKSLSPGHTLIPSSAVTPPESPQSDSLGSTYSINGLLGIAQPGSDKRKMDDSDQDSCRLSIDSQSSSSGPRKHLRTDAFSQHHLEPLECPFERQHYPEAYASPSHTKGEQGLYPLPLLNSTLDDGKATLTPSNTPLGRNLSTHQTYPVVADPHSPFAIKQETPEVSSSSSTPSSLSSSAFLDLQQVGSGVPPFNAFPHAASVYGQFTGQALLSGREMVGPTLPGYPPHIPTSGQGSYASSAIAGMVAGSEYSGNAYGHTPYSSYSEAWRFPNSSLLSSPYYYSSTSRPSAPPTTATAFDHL

[9] = general cell-killing toxicity readout – plate reader, dry powder samples, cytotoxicity control for PAX8 inhibitor project, dose response (AID 743021); format: functional, cell-based
[10] = molecular target: T4, Polyadenylate-binding protein 1 (Homo sapiens, UniProt P11940); experiment: MLLE binding blockers, Cy5 peptide tracer – biochemical, fluorescence polarization, Cy5-PAM2 peptide, secondary, miRNA deadenylation inhibitor project, dose response (AID 602260); format: functional; settings: read-out: IC50_Mean
T4 sequence (P11940 whole entry): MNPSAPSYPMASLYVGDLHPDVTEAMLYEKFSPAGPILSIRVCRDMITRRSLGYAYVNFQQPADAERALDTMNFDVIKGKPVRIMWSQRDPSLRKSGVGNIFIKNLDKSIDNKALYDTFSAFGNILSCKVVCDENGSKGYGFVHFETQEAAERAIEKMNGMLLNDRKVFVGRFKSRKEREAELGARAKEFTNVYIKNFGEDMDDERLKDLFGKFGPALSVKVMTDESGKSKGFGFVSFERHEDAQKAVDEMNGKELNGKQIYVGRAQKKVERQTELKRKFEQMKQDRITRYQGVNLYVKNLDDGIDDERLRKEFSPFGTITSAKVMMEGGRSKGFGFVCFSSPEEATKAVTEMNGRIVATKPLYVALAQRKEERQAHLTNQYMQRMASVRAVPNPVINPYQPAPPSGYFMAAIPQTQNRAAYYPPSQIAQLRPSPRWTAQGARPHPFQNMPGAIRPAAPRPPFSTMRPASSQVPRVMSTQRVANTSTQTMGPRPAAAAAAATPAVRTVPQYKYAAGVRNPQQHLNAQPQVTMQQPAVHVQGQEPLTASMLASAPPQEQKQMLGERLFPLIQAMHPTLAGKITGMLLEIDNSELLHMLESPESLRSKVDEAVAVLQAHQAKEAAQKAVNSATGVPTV

Beta Lactamase = Beta Lactamase (Pseudomonas aeruginosa, UniProt Q932Y6); experiment: BLA reporter interference, concentration series – BLA reporter cells, FRET fluorescence, artefact control for TLR9-MyD88 binding inhibitor project, dose response (AID 588341); format: cell-based;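 note: cell based assay in CHO-K1 cells stably expressing beta-lactamase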
Sequence of Beta Lactamase (Q932Y6 whole entry, the tested form may be a part): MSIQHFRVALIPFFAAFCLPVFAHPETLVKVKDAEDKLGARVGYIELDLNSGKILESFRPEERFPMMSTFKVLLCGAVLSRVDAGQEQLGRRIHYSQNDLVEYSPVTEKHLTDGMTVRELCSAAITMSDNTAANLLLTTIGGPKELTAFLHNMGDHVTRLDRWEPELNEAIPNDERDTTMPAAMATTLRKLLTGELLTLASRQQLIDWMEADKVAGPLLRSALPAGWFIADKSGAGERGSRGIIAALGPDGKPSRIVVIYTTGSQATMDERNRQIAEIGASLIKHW

[11] = molecular target: T4, Polyadenylate-binding protein 1; experiment: MLLE domain peptide-binding blockers, IC50 – biochemical, fluorescence polarization, FITC-PAM2 peptide, dose response (AID 602259); format: functional; settings: read-out: IC50_Mean
HEK293 = experiment: EBV LMP1 TES2 canonical NF-kB signalling blockers – cell-based, HEK293, luciferase, cherry-pick, dose response (AID 588343); format: functional; settings: Homo sapiens
CHO = CHO cell viability loss, potency – luminescence, cytotoxicity control for TLR9-MyD88 binding inhibitor project, dose response (AID 588339); format: functional, cell-based, hamster; settings: Cricetulus griseus;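 note: CHO cells stably coexpressing TLR9 and MyD88 fusions from primary screen; compound exposure lasted 48 hours before viability readout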
[12] = toxicity to human hepatoma HepG2 cells – cell-based, cherry-picked samples, cytotoxicity control, dose response (AID 1159577); format: functional
[13] = viability loss in HEK293 kidney cells – cell-based, cherry-picks, set 5, cytotoxicity control, dose response (AID 1053117); format: functional
[14] = P. falciparum Dd2 growth inhibitors, dose response, SYBR Green, cherry-picked samples (AID 1159567); format: functional, cell-based
[15] = activation of miR-122 Renilla sensor silencing – cell-based, Huh7 psiCHECK-miR122, Renilla luciferase, cherry-picked, dose response (AID 651956); format: functional;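 note: huh7 hepatoma cells stably carrying a psiCHECK-2 miR-122 sensor plasmid; renilla luciferase signal reporting endogenous miR-122 activity after 48 h compound exposure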
[16] = molecular target: Potassium channel subfamily K member 3 (Rattus norvegicus, UniProt O54912); experiment: SAR analysis for the identification of selective inhibitors of the two-pore domain potassium channel TASK1(KCNK3):Automated Electrophysiology.; format: functional
Sequence of Potassium channel subfamily K member 3 (Rattus norvegicus, UniProt O54912) (O54912 whole entry, the tested form may be a part): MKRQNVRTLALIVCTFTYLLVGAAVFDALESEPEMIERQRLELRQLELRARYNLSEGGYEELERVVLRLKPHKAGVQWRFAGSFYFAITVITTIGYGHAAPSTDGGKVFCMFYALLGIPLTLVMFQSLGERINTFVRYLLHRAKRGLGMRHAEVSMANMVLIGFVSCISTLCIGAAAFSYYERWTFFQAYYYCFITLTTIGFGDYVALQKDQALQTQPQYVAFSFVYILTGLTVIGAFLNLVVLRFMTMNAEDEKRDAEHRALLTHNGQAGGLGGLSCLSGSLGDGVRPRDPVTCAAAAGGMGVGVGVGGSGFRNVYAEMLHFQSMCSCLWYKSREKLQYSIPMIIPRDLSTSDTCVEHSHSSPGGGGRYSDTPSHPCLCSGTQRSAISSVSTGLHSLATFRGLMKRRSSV

[17] = molecular target: Potassium channel subfamily K member 3 (Homo sapiens, UniProt O14649); experiment: inhibition of human KCNK3 channel flux – CHO cells, FluxOR thallium flux, SAR follow-up (AID 652212); format: functional
Sequence of Potassium channel subfamily K member 3 (Homo sapiens, UniProt O14649) (O14649 whole entry): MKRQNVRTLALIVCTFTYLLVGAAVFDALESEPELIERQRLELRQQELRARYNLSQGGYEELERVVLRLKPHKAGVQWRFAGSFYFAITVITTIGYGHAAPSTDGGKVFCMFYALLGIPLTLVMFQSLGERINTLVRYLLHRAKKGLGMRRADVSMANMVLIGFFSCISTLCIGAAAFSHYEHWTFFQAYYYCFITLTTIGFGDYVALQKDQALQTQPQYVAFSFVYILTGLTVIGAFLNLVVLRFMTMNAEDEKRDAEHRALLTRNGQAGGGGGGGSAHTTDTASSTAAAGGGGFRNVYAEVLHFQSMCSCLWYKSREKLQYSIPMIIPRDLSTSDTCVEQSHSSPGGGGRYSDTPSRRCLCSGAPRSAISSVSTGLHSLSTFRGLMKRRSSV

[18] = molecular target: Potassium channel subfamily K member 9 (Homo sapiens, UniProt Q9NPC2); experiment: KCNK9 flux blockade, concentration-response – cell-based, FluxOR thallium flux, selectivity assay for TASK1 inhibitor project, SAR follow-up (AID 652211); format: functional;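 note: potency is for inhibitors of the channel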
Sequence of Potassium channel subfamily K member 9 (Q9NPC2 whole entry): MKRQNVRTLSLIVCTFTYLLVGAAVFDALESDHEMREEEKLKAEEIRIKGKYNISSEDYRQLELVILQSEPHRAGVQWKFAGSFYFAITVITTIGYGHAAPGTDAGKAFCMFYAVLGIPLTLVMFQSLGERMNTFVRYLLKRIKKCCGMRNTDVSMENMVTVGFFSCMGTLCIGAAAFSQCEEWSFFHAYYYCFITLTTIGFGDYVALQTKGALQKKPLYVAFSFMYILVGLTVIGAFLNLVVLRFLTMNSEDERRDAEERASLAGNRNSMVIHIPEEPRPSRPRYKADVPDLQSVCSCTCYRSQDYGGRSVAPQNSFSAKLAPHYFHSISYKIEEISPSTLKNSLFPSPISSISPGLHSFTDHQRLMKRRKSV

IC50 [1]: 12.5 µM (active)
IC50 (Genome polyprotein): > 100 µM (active)
IC50 [2]: 19.3 µM (inactive)
Structure (SMILES): O=C1C(O)=C(O)C(=O)c2ccccc21

Structure (SMILES): O=C1S/C(=C\c2ccc(N3CCOCC3)o2)C(=O)N1Cc1c(F)cccc1Cl
AC50 [3]: 18.5 µM (active)
EC50 [4]: > 260 µM (inactive)
EC50 [5]: 6.68 µM (active)
AC50 [6]: 42.1 µM (active)
AC50 [7]: 6.72 µM (active)

Structure (SMILES): COc1ccccc1N(C(C)=O)C1=C(Cl)C(=O)c2ccccc2C1=O
IC50 [8]: > 122 µM (inactive)
CC50 (Vero): 22.6 µM (active)
AC50 (Paired box protein Pax-8): 3.59 µM (active)
AC50 [9]: 27.8 µM (active)
IC50 [10]: > 66 µM (inactive)
IC50 (Beta Lactamase): 5.37 µM (active)
IC50 (Genome polyprotein): 9.2 µM (active)
IC50 [11]: > 66 µM (inactive)
AC50 (HEK293): 5.98 µM (active)
IC50 (CHO): 1.03 µM (active)

Structure (SMILES): CO[C@@H]1CN(C)C(=O)c2cc(NC(=O)Nc3ccc(Cl)c(Cl)c3)ccc2OC[C@H](C)NC[C@H]1C
AC50 [12]: 7.83 µM (active)
AC50 [13]: > 52 µM (inactive)
AC50 [14]: 6.4 µM (active)
AC50 [15]: 24.8 µM (active)

IC50 [16]: 0.03 µM (active)
IC50 [17]: 0.008 µM (active)
IC50 [18]: 3.02 µM (active)
Structure (SMILES): COc1ccccc1NC(=O)c1cccc(NC(=O)c2ccccc2OC)c1
